Emax and EC50 data for 8 compounds are collected here from patent publication US20240217983A1, “GPR119 AGONISTS” (Kallyope, Inc., priority 2021, published 2024).

In the test the target is T1, human GPR119 (hGPR119) (Homo sapiens, UniProt Q8TDV5).
T1 construct: expressed in transfected cells
T1 sequence (Q8TDV5 1-335): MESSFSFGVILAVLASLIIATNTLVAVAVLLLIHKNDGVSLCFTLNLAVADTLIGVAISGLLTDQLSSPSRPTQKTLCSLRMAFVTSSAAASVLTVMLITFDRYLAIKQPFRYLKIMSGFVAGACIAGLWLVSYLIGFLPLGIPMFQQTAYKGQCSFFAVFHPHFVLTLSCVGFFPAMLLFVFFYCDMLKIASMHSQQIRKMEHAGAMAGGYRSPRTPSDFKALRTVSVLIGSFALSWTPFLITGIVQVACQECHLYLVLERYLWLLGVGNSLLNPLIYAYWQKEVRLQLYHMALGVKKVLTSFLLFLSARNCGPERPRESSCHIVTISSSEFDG
Kind of test: cAMP accumulation assay (Cisbio cAMP Gs dynamic HTRF kit) in CHO-K1 cells stably expressing human GPR119. The settings on record: 4-parameter fit; for Emax: 1 h, % activity normalized to Max and Min controls; for EC50: 60 minutes at 37° C. Format: cell-based. The method, then:
CHO-K1 cells stably expressing human GPR119 (hGPR119) were prepared by transfection of a GPR119-carrying plasmid using Lipofectamine 2000 (following manufacturer instructions). A stable cell line was established using the limiting dilution method with geneticine selection. Assay-ready frozen (ARF) cells were prepared and used throughout the study.
The assay was performed in a 384-well plate format using the cAMP Gs dynamic assay kit from Cisbio. ARF cells expressing hGPR119 were thawed, washed and then resuspended in cAMP stimulation buffer at a cell density of 1.1×10^6 cells/mL. Cells were plated at a density of ˜10,000 cells/well (9 μL/well). Dose response curves for the tested compounds were prepared in a cAMP stimulation buffer, containing 0.1% Tween 80 at 4 fold the final concentration. The compounds were then transferred to the cell plates using BRAVO (3 μL/well) and the plates were incubated for 60 minutes at 37° C./5% CO2. Detection buffer (10 μL, prepared as described in the cAMP Gs dynamic kit) were added to each well, and the plates were incubated at ambient temperature for 1 hr.
RT-FRET was measured using a ClarioSTAR plate reader, calculating the ratio between emissions at 665 nm and 620 nm (HTRF ratio). The HTRF ratio for positive (Max) and negative (Min) controls were used to normalize HTRF data and generate values for % activity. EC50 and Max activity values were determined using a standard 4-parameter fit.

Counter-ions that a name gives are not always drawn.

Turning to `O=C(CCCCS(=O)(=O)O)N1CCOC2(CCN(C(=O)Cc3ccc(OCCCC4CCN(c5ncc(Cl)cn5)CC4)cc3F)C2)C1` (stereo not shown) [Example 24, 5-(2-(2-(4-(3-(1-(5-chloropyrimidin-2-yl)piperidin-4-yl)propoxy)-2-fluorophenyl)acetyl)-6-oxa-2,9-diazaspiro[4.5]decan-9-yl)-5-oxopentane-1-sulfonic acid], the Emax was 100 to 130% and the EC50 is not above 100 nM.
For the compound `O=C(Cc1ccc(OCCCC2CCN(c3ncc(Cl)cn3)CC2)cc1F)N1CC2(CN(C[C@H](O)[C@H](O)[C@H](O)CO)C2)C1` [Example 25, 2-(4-(3-(1-(5-chloropyrimidin-2-yl)piperidin-4-yl)propoxy)-2-fluorophenyl)-1-(6-((2S,3S,4R)-2,3,4,5-tetrahydroxypentyl)-2,6-diazaspiro[3.3]heptan-2-yl)ethan-1-one formate], the Emax lay in the range of 50 to 100% and the EC50 was more than 10000 nM.
Take `O=C(Cc1ccc(OCCCC2CCN(c3ncc(Cl)cn3)CC2)cc1F)N1CC2(CN(C[C@H](O)[C@@H](O)[C@H](O)[C@H](O)CO)C2)C1` [Example 26, 2-(4-(3-(1-(5-chloropyrimidin-2-yl)piperidin-4-yl)propoxy)-2-fluorophenyl)-1-(6-((2S,3R,4R,5R)-2,3,4,5,6-pentahydroxyhexyl)-2,6-diazaspiro[3.3]heptan-2-yl)ethan-1-one]: the Emax lay within 100 to 130% and the EC50 was not above 100 nM.
With `O=C(Cc1ccc(OCCCC2CCN(c3ncc(Cl)cn3)CC2)cc1F)N1CCN(C[C@H](O)[C@@H](O)[C@H](O)[C@H](O)CO)CC1` [Example 27, 2-(4-(3-(1-(5-chloropyrimidin-2-yl)piperidin-4-yl)propoxy)-2-fluorophenyl)-1-(4-((2S,3R,4R,5R)-2,3,4,5,6-pentahydroxyhexyl)piperazin-1-yl)ethan-1-one], the Emax lay within 100 to 130% and the EC50 is not above 100 nM.
For `O=C(Cc1ccc(OCCCC2CCN(c3ncc(Cl)cn3)CC2)cc1F)N1CCC2(CN(C[C@H](O)[C@H](O)[C@H](O)CO)C2)C1` [Example 28, 2-(4-(3-(1-(5-chloropyrimidin-2-yl)piperidin-4-yl)propoxy)-2-fluorophenyl)-1-(2-((2S,3S,4R)-2,3,4,5-tetrahydroxypentyl)-2,6-diazaspiro[3.4]octan-6-yl)ethan-1-one] the same measures were 100 to 130% and not above 100 nM.
Compound `O=C(Cc1ccc(OCCCC2CCN(c3ncc(Cl)cn3)CC2)cc1F)N1CCC2(CN(C[C@H](O)[C@@H](O)[C@H](O)[C@H](O)CO)C2)C1` [Example 29, 2-(4-(3-(1-(5-chloropyrimidin-2-yl)piperidin-4-yl)propoxy)-2-fluorophenyl)-1-(2-((2S,3R,4R,5R)-2,3,4,5,6-pentahydroxyhexyl)-2,6-diazaspiro[3.4]octan-6-yl)ethan-1-one] gave an Emax of 100 to 130% and an EC50 not above 100 nM.
The matching figures for `O=C(Cc1ccc(OCCCC2CCN(c3ncc(Cl)cn3)CC2)cc1F)N1CCC2(CCN2C[C@H](O)[C@H](O)[C@H](O)CO)C1` (stereo partly drawn) [Example 30, 2-(4-(3-(1-(5-chloropyrimidin-2-yl)piperidin-4-yl)propoxy)-2-fluorophenyl)-1-(1-((2S,3S,4R)-2,3,4,5-tetrahydroxypentyl)-1,6-diazaspiro[3.4]octan-6-yl)ethan-1-one]: 100 to 130% and not above 100 nM.
`O=C(Cc1ccc(OCCCC2CCN(c3ncc(Cl)cn3)CC2)cc1F)N1CCC2(CCN2C[C@H](O)[C@@H](O)[C@H](O)[C@H](O)CO)C1` (stereo partly drawn) [Example 31, 2-(4-(3-(1-(5-chloropyrimidin-2-yl)piperidin-4-yl)propoxy)-2-fluorophenyl)-1-(1-((2S,3R,4R,5R)-2,3,4,5,6-pentahydroxyhexyl)-1,6-diazaspiro[3.4]octan-6-yl)ethan-1-one] returned an Emax of 100 to 130% and an EC50 not above 100 nM.
